pEC50, pIC50: −log10 of the molar value. Where two headings read alike, the source gives them in different places. Bounds are passed on as bounds.

The target in one test is T1, human liver cathepsin B (Homo sapiens, UniProt P07858).
T1 construct: purchased Sigma; host or cells: human liver (by the enzyme's name)
As to the kind of experiment: Specificity assay, cathepsin B. It counts as biochemical. The conditions noted are these: read-out: Cathepsin B activity in the specificity assays (IC50). The protocol: The specificities of compounds of the present invention were determined against a variety of serine proteases: human neutrophil elastase (HNE), porcine pancreatic elastase (PPE) and human pancreatic chymotrypsin and one cysteine protease: human liver cathepsin B. In all cases a 96-well plate format protocol using calorimetric p-nitroaniline (pNA) substrate specific for each enzyme was used as described previously (PCT Patent Application No. WO 00/09543) with some modifications to the serine protease assays. All enzymes were purchased from Sigma while the substrates were from Bachem.
Each assay included a 2 hr enzyme-inhibitor pre-incubation at room temperature followed by addition of substrate and hydrolysis to ˜30% conversion as measured on a Spectramax Pro microplate reader. Compound concentrations varied from 100 to 0.4 micromolar (“μM”) depending on their potency. […]
The percentage of inhibition was calculated using the formula: [1−((UVinh−UVblank)/(UVctl−UVblank))]×100 […]

Test [1] deals with HCV replicon (HCV 1b-377-neo replicon cells, Huh7). As to the kind of experiment: HCV replicon cell-based FRET assay. The following applies: Hepatitis C virus, Huh-7. The method, boiled down: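 Huh7 cells carrying a neo-selectable genotype 1b HCV replicon (~3,000 RNA copies/cell) were seeded at 1.5×10^4 cells/well and treated 4 days at 37 °C (0.5% DMSO final). CC50 was read by alamar Blue (4 h, ex 530/em 580 nm). Lysates with 10 μM EDANS/DABCYL NS3 protease FRET peptide were read kinetically (ex 340/em 490 nm, 25 °C, ~15 min) for % inhibition.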

The term pIC50 denotes the negative decadic logarithm of the IC50, by convention in mol/L. In general, pEC50 refers to −log10 of the EC50, conventionally taken in molar units. Consider `CC(C)(C)OC(=O)N[C@H]1CCCCC/C=C\[C@@H]2C[C@@]2(C(=O)NS(C)(=O)=O)NC(=O)[C@@H]2C[C@@H](Oc3nccc4ccccc34)CN2C1=O` [Compound 2, [18-(Isoquinolin-1-yloxy)-4-methanesulfonylaminocarbonyl-2,15-dioxo-3,16-diaza-tricyclo[14.3.0.0^4,6]nonadec-7-en-14-yl]-carbamic acid tert-butyl ester], for which the pIC50 on human liver cathepsin B was less than 4.00. Besides, the pEC50 in test [1] was 6.30 to 7.30; in test [1] (read-out: EC50 value in the replicon assay) it was 6.84.
In turn, `CC(C)(C)OC(=O)N[C@H]1CN(S(=O)(=O)c2ccccc2[N+](=O)[O-])CCC/C=C\[C@@H]2C[C@@]2(C(=O)O)NC(=O)[C@@H]2C[C@@H](Oc3nccc4ccccc34)CN2C1=O` [Compound 144] gave a pEC50 in test [1] of 4.30 to 5.30.

These data come from US7173004B2, “Macrocyclic isoquinoline peptide inhibitors of hepatitis C virus” (Bristol-Myers Squibb Company, priority 2003, dated 2007).
